Test results reported in patent US10441537B2, “Unit doses, aerosols, kits, and methods for treating heart conditions by pulmonary administration” (InCarda Therapeutics, Inc., priority 2017, dated 2019).
Where two headings read alike, the source gives them in different places.

What was measured:
healthy volunteers [1] = assay: Phase 1 study: ECG pharmacodynamics (QRS, PR, QTcF, T-wave) and PK-PD; format: in vivo, human
Description: The ECG recordings included: 1) Continuous real-time ECG telemetry for observation of patient safety starting at 12 hours pre-dose and continuing for 12 hours post-dose, 2) 12-lead ECGs for immediate review by medical staff to ascertain the safety of the procedures and drug administration were recorded at pre-specified (or any time as needed) before dosing (pre-dose) and after dosing (post-dose), and 3) continuous 12-lead ECG (cECG, iCardiac Holter monitoring) was recorded for 24 hours, starting 1 hour prior to dosing and up to 24 hours post dosing.
As expected from non-steady state conditions, and shown in FIGS. 84A and 84B, a temporal dissociation is observed between ([Flec]plasma) and ΔQRS. […] The hysteresis between concentrations and responses (QRS) applies for both routes of administration, IV and inhalation.

[2] = tested on: induced atrial fibrillation; assay: Conversion of ACh/burst-pacing-induced AF in intact porcine model (Example 6); format: in vivo, pigs
Description: After 30-min recovery, the alternate intervention was tested. Times for conversion to normal sinus rhythm were compared.

[3] = Plasma concentrations in LV, femoral vein and pulmonary artery of dogs (Example 7); format: in vivo
healthy volunteers [4] = conditions: in vivo
Description: 3 cohorts of subjects, in total 34 healthy adult volunteers, were recruited for Part A study.
Part B was an open label non-randomized crossover in a cohort of 6 evaluable healthy adult volunteers.
Adverse events were monitored and recorded.

[5] = IV 2 mg/Kg, n=3, package insert; cited from earlier work
physchem = conditions: water

For `O=C(NCC1CCCCN1)c1cc(OCC(F)(F)F)ccc1OCC(F)(F)F` (stereo not shown) [flecainide, flecainide acetate], the “non-specific intraventricular conduction delay” value (healthy volunteers [1]; IV infusion 2 mg/kg) was 3 of 6 subjects, the “smaller changes in QRS interval duration, inhalation vs IV infusion” value (healthy volunteers [1]; eTLD 30 mg vs ˜150 mg IV) was 2.7 fold and the “lower plasma concentration by inhalation for QRS prolongation as after IV (6.2/2.7)” value (healthy volunteers [1]; in vivo, iv) was 2.3 fold. For the same molecule, the T-wave morphology (healthy volunteers [1]; inhalation 20, 30 and 40 mg eTLD) was “No changes in T-wave morphology”, the “lower plasma level after inhalation at near-equal ΔQRS” value (healthy volunteers [1]; inhalation vs IV) was 2.6 fold and the “mean ΔQRS” value (healthy volunteers [1]; inhaled 20 mg eTLD, between 1 and 3 minutes after end of inhalation) was “small increase of mean ΔQRS”. For the same molecule, the “PR interval duration prolonged from start of inhalation” value (healthy volunteers [1]; inhaled 30 mg eTLD, 5 min after completion of inhalation) was 12 ms, the QRS duration (healthy volunteers [1]; inhaled 40 mg eTLD, Cohort 2) was “transient increase between 1 and 3 minutes post-dosing” and the “changes of the PR interval duration” value (healthy volunteers [1]; inhaled 20 or 40 mg eTLD) was “Minimal or no changes”. For the same molecule, the “non-specific intraventricular conduction delay” value (healthy volunteers [1]; oral inhalation eTLD of 30 mg) was “not observed in any of the same subjects”, the “decrease of R-wave amplitude (QRSa)” value (healthy volunteers [1]; subject R222, 40 mg eTLD, 3 min post-dosing) was 400 μV and the “increase of QRS duration (QRSd)” value (healthy volunteers [1]; subject R222, inhaled 40 mg eTLD, 1 minute post-dosing) was 10 ms. The “time within which plasma concentration reached levels required for conversion” value ([2]; IT 0.75 mg/kg and 1.5 mg/kg (FIG. 66A)) was ≤ 10 min, the “dominant frequency of AF” value ([2]; IT 0.75 mg/kg and 1.5 mg/kg (FIG. 67)) was “reduced the dominant frequency of AF” and the “AF conversion in representative electrograms” value ([2]; IT 1.5 mg/kg (FIG. 65)) was 5 min. For the same molecule, the “MAP and ventricular rate after conversion” value ([2]; IT 1.5 mg/kg or 0.75 mg/kg) was “restored MAP and ventricular rate to baseline values”, the “plasma concentrations transiently higher in the LV than in the PA (summary)” value ([3]; IT) was ~2.5 fold and the “plasma levels higher in the LV than in the systemic venous circulation” value ([3]; IT, at the time of conversion) was ~2 fold. For the same molecule, the “plasma concentrations transiently higher in the PA than in the LV (summary)” value ([3]; IV infusion) was ~3.5 fold, the “time after administration at which LV and PA concentrations were nearly equal” value ([3]; IV or IT) was 4 to 10 min and the “Adverse Event: Cough” value (healthy volunteers [4]; both, human) was 1. The “Adverse Event: Lightheadedness” value (healthy volunteers [4]; both, human) was 1, the “study-drug related Cough” value (healthy volunteers [4]; both, human) was 3 events in 3/25 subjects (12%) and the “study-drug related Dry mouth” value (healthy volunteers [4]; both, human) was 3 events in 3/25 subjects (12%). The “study-drug related Dysgeusia” value (healthy volunteers [4]; both, human) was 2 events in 2/25 subjects (8%), the “study-drug related Dyspnoea (shortness of breath)” value (healthy volunteers [4]; both, human) was 4 events in 4/25 subjects (16%) and the “study-drug related Oropharyngeal discomfort” value (healthy volunteers [4]; both, human) was 10 events in 10/25 subjects (40%). The “study-drug related dizziness” value (healthy volunteers [4]; both, human) was 3 events in 3/25 subjects (12%), the “study-drug related headache” value (healthy volunteers [4]; both, human) was 3 events in 2/25 subjects (8%) and the “average events per subject” value (healthy volunteers [4]; human) was 2. The “probably study-drug related oropharyngeal discomfort, subjects” value (healthy volunteers [4]; human) was 4, the “study-drug related paresthesia oral” value (healthy volunteers [4]; human) was 3 events in 3 subjects and the “average events per subject” value (healthy volunteers [4]; human, iv) was 7. The “hypotension (systolic BP) for which the IV infusion had to be interrupted” value (healthy volunteers [4]; human, iv) was < 65 mmHg, the “severe and moderate intensity AEs probably related to the study drug” value (healthy volunteers [4]; human, iv) was 1 severe and 2 moderate intensity AEs and the “study-drug related application site coldness” value (healthy volunteers [4]; human, iv) was 2 occurrences in 2 subjects. For the same molecule, the study-drug related dizziness (healthy volunteers [4]; human, iv) was 6 events in 6 subjects, the study-drug related headache (healthy volunteers [4]; human, iv) was 5 events in 5 subjects and the “study-drug related peripheral coldness, palpitations, and chest discomfort” value (healthy volunteers [4]; human, iv) was “each occurring 2 times 1 subject”. For the same molecule, the “Number of Moderate or Severe TEAEs” value (healthy volunteers [4]; human, iv, 2 mg/kg) was 4, the “Number of Related TEAEs” value (healthy volunteers [4]; human, iv, 2 mg/kg) was 35 and the “Number of Related, Moderate or Severe TEAEs” value (healthy volunteers [4]; human, iv, 2 mg/kg) was 4. The “Number of SAEs” value (healthy volunteers [4]; human, iv, 2 mg/kg) was 0, the “Number of Subjects with at least one Moderate or Severe TEAE” value (healthy volunteers [4]; human, iv, 2 mg/kg) was 2 subjects (29%) n (%) and the “Number of Subjects with at least one TEAE” value (healthy volunteers [4]; human, iv, 2 mg/kg) was 7 (100) n (%). The “Number of Treatment-Emergent Adverse Events” value (healthy volunteers [4]; human, iv, 2 mg/kg) was 49, the “TEAE: Chest discomfort” value (healthy volunteers [4]; human, iv, 2 mg/kg) was 3 such events also occurred in 1 subject n (%) [events] and the “TEAE: Dizziness” value (healthy volunteers [4]; human, iv, 2 mg/kg) was 6 events in 6/7 subjects, 86% n (%) [events]. For the same molecule, the “TEAE: Headache” value (healthy volunteers [4]; human, iv, 2 mg/kg) was 6 events in 5/7 subjects, 71% n (%) [events], the “remaining study-drug related events (cough, dysphonia, dyspnoea, oral hypoesthesia, chest discomfort)” value (healthy volunteers [4]; human, po) was “once in 1 subject each” and the serious adverse events (healthy volunteers [4]) was “No serious adverse events were reported”. For the same molecule, the tolerability (healthy volunteers [4]) was “well tolerated”, the “Number of SAEs” value (healthy volunteers [4]; iv, 2 mg/kg) was “no SAEs reported” and the Tmax [5] was 10.0 min after EOI. The solubility (physchem) was ~30 mg/mL.
